{
  "source": "patent US5466716A",
  "about": "“Liposomal trimethylsphingosine” (The Biomembrane Institute, priority 1994, dated 1995)",
  "key": {"[1]": {"test_system": "human gastric cancer cell line MKN-74", "assay": "tritiated thymidine incorporation, tumor cell growth (MKN-74)", "format": "cell-based", "conditions": "MKN-74, FIG. 2C", "excerpt": "(§1) FIGS. 2A-2C show the effect of sphingosine derivatives on human tumor cell growth. In FIG. 2A the growth of human colonic cancer cell line COLO-205 was monitored. In FIG. 2B the growth of human lung cancer cell line LU-65 was monitored. In FIG. 2C the growth of human gastric cancer cell line MKN-74 was monitored. In each Figure the ordinate represents the percent inhibition of tritiated thymidine incorporation, the solid circles represent sphingosine, the open circles represent N,N-dimethylsphingosine and the triangles represent N,N,N-trimethylsphingosine.\n(§2) An in vitro assay relying on tritiated thymidine incorporation can be used to ascertain the effect of various compounds on cell proliferation. Briefly, tumor cells are seeded in flat bottom 96 well plates (Corning, N.Y.) at a concentration of 2×10^4 cells per well. The cells are cultured for 2 days in DMEM containing various concentrations of sphingoid, which is added as a PBS solution. The medium then is supplemented with tritiated thymidine at a concentration of 0.5 μCi per well. Following a six hour incubation the cells are collected using the PHD Cell Harvester (Cambridge Technology, Cambridge, Mass.) and amounts of incorporated radioactivity are determined after adding a suitable cell lysing agent and scintillation cocktail, such as ScintiVerse BD (Fisher Scientific, Fairlawn, Calif.) which performs both functions. […]"}, "BL6 cells": {"test_system": "BL6 cells", "assay": "BL6 lung metastatic deposits in mice", "format": "in vivo", "excerpt": "FIGS. 6A-C depict the effect of N,N,N-trimethylsphingosine on lung metastatic deposits after intravenous injection of BL6 cells into mice. Each graph represents the mean and standard deviation of results obtained in 8 animals. In FIG. 6A the open bars depict the total number of lung colony deposits; the stippled bars depict the number of lung colonies with a diameter of greater than 1 mm; and the solid bars depict the number of lung colonies with a diameter of less than 1 mm. Bars 1-3 depict the number of deposits observed 14 days after injection. Bars 4-6 depict the number of lung colony deposits in animals that received BL6 cells and 1 minute later received 0.2 mg of N,N,N-trimethylsphingosine (TMS). […]\nIn FIG. 6B the number of lung colonies was determined 16 days after treatment, the treatment consisting of varying doses and routes of administration. […]\nIn FIG. 6C the dose responsiveness of BL6 metastatic potential to TMS is presented. […] Sixteen days after treatment, the mice were sacrificed, lungs opened and the number of colonies in the lungs were counted under a dissecting microscope.\nThe effectiveness of TMS in vivo is summarized in the graphs comprising FIG. 6. BL6 cells were injected into mice and metastatic deposits in the lung were assessed after various treatments including route and timing of administration."}, "F1 melanoma cells": {"test_system": "F1 melanoma cells", "assay": "melanoma F1 cell proliferation (thymidine incorporation)", "format": "cell-based", "conditions": "F1, FIG. 5B", "excerpt": "FIGS. 5A and 5B depict the effect of N,N,N-trimethylsphingosine (open circles), N,N-dimethylsphingosine (solid circles) and sphingosine (open squares) on two melanoma cell lines, BL6, a highly malignant cell line (in FIG. 5A) and F1, a cell line of low malignancy, (in FIG. 5B). Cell proliferation was evidenced by tritiated thymidine incorporation into DNA.\nAn in vitro assay relying on tritiated thymidine incorporation can be used to ascertain the effect of various compounds on cell proliferation. Briefly, tumor cells are seeded in flat bottom 96 well plates (Corning, N.Y.) at a concentration of 2×10^4 cells per well. The cells are cultured for 2 days in DMEM containing various concentrations of sphingoid, which is added as a PBS solution. The medium then is supplemented with tritiated thymidine at a concentration of 0.5 μCi per well. Following a six hour incubation the cells are collected using the PHD Cell Harvester (Cambridge Technology, Cambridge, Mass.) and amounts of incorporated radioactivity are determined after adding a suitable cell lysing agent and scintillation cocktail, such as ScintiVerse BD (Fisher Scientific, Fairlawn, Calif.) which performs both functions.\nCertain cancer cells show a higher metastatic potential and invasive capability than others. For example the BL6 and F10 melanoma cell lines are highly metastatic and invasive. […]"}, "[2]": {"test_system": "human colonic cancer cell line COLO-205", "assay": "tritiated thymidine incorporation, tumor cell growth (COLO-205)", "format": "cell-based", "conditions": "COLO-205, FIG. 2A", "excerpt": "as §1, §2"}},
  "note": "Entries after “also recorded” stand apart in the source; their conditions may differ.",
  "data": [
    {"compound": "CCCCCCCCCCCCC/C=C/[C@@H](O)[C@H](CO)[N+](C)(C)C", "note": "[TMS, N,N,N-trimethylsphingosine]", "values": [
      {"measurement": "inhibition of tumor cell growth", "setting": "[1]", "value": "superior to sphingosine; also recorded: showed an advantage over DMS"},
      {"measurement": "dose responsiveness of lung tumor colonization", "setting": "BL6 cells; FIG. 6B, 6C", "value": "distinct dose responsiveness"},
      {"measurement": "suppression of lung colonization and tumor development", "setting": "BL6 cells; irrespective of route or timing, FIG. 6", "value": "effective in suppressing lung colonization and tumor development"},
      {"measurement": "inhibition of cell growth", "setting": "F1 melanoma cells", "value": "more effective than DMS and sphingosine"},
      {"measurement": "inhibition of tumor cell growth", "setting": "[2]", "value": "superior to sphingosine; also recorded: showed an advantage over DMS"}
    ]}
  ]
}
